Experimental findings from PubChem BioAssay AID2286 (Southern Research Specialized Biocontainment Screening …, 2010) are described below.

Test [1] can be described thus: MAGI-CCR5 and HeLa-R5-16 cytotoxicity, dose response, cytotoxicity control for HIV-1 fusion inhibitor project, cell-based, MAGI and MAGI-HeLa co-culture (AID 2286).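 On all read-outs here: cells exposed to compound for at least 64 h before ATP readout.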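 On minimum viability: 100% = median of DMSO vehicle wells with no ATP signal meaning 0%.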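 On viability: 100% = median of DMSO vehicle wells with no ATP signal meaning 0%.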 Conditions: MAGI-CCR5 cells viability, CellTiter-Glo ATP luminescence; for minimum viability: measured here: MAGI minimum viability across doses.
The subject of test [2] is MAGI-CCR5 cells viability, CellTiter-Glo ATP luminescence. The description is as above.
Setting [3] is: MAGI-HeLa co-culture viability, at 50 µM, stronger effect = lower value.
[4] abbreviates: measured here: MAGI + HeLa-R5-16 co-culture viability.

Activity calls are given as the source filed them.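 How the source made its calls: active means minimum cell viability of 80% or lower across the dose range, counted as toxic; inactive means minimum cell viability above 80%.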 A value given as a limit tells only on which side of the number the result lay.

As for `COc1cccc(OCCOc2ccc(/C=C3\C(=N)N4N=C(S(C)(=O)=O)SC4=NC3=O)cc2OC)c1`, the viability in test [1] (setting [3]) was 38%; in test [1] (at 50 µM (top of the series)), 97.2% (inactive). The molecule also returned a minimum viability in test [1] (at 3.13 µM, stronger effect = lower value) of 91.2%. Also, in test [2] (setting [4]), the CC50 turned out to be 35.8 µM.
For `O=[N+]([O-])c1cc([N+](=O)[O-])c2oc(-c3ccccc3)c(Br)c2c1O`, in test [1] (setting [3]), the viability is 57.6%. Besides, the minimum viability in test [1] (at 50 µM, stronger effect = lower value) came to 34.5%. For the same molecule, the results for the CC50 in test [2] and in test [2] (setting [4]) were 22.5 µM and greater than 50 µM, respectively.
On the same counts, the results for `O=C(O)CCCCCN1C(=O)/C(=C\c2cn(-c3ccccc3)nc2-c2cccs2)SC1=S` are 54.7%, 47.2%, 44.3 µM and greater than 50 µM.
For `COc1ccc(C(=O)/C=C/c2ccc(OCc3ccccc3)cc2)cc1CSCC(=O)O`, the viability in test [1] (setting [3]) came out at 86.3%. The molecule further came in with a minimum viability in test [1] (at 50 µM, stronger effect = lower value) of 42.6%. Moreover, the cytotoxic concentration (CC50) in test [2] is 46 µM.
In the case of `COc1cc(/C=C2\SC(=O)N(Cc3ccc(Cl)cc3)C2=O)cc([N+](=O)[O-])c1O`, the viability in test [1] (setting [3]) was 72.8%. The minimum viability in test [1] (at 50 µM, stronger effect = lower value) turned out to be 38.6%. Also, the figures for the CC50 in test [2] and in test [2] (setting [4]) were 20.8 µM and greater than 50 µM, respectively.
With `O=C(O)CCn1cc(/C=C/C(=O)c2ccc(Cl)cc2)c(-c2cccc(Br)c2)n1`, the viability in test [1] (setting [3]) was found to be 87%. The molecule also returned a minimum viability in test [1] (at 50 µM, stronger effect = lower value) of 40.5%. The CC50 in test [2] was 43.1 µM.
As for `CCC(C)(C)C1CCc2c(sc(NC(=O)c3ccccc3C(=O)O)c2C#N)C1` (centres undefined), the viability in test [1] (setting [3]) amounted to 50.7%. In test [1] (at 50 µM, stronger effect = lower value), the minimum viability was found to be 55.5%. Besides, in test [2] (setting [4]), the CC50 was greater than 50 µM.
In the same order, the values of `COc1cc(/C=C2\C(=N)N3N=C(S(C)(=O)=O)SC3=NC2=O)ccc1OCCOc1ccccc1C` are 15%, 51.5% and 10 µM.
Take `O=C(Nc1ccc(Oc2ccc(Cl)cc2)c(Cl)c1)c1cc(I)cc(I)c1O`: the viability in test [1] (setting [3]) stood at 11.8%. The molecule also yielded a minimum viability in test [1] (at 50 µM, stronger effect = lower value) of 10.4%. In addition, the half-maximal cytotoxic concentration (CC50) was 13.6 µM in test [2] and 25.2 µM in test [2] (setting [4]).
As to `Nc1c(S(=O)(=O)O)cc(NC(=O)c2ccccc2)c2c1C(=O)c1ccccc1C2=O`, the viability was 50.2% in test [1] (setting [3]) and 103% (inactive) in test [1] (at 50 µM (top of the series)). Also, the minimum viability in test [1] (at 25 µM, stronger effect = lower value) stood at 89.2%. Besides, in test [2] (setting [4]), the half-maximal cytotoxic concentration (CC50) amounted to 49.2 µM.
In the case of `O=C(O)c1ccc(N2C(=O)/C(=C/c3ccc(-c4ccc([N+](=O)[O-])cc4)o3)C=C2c2ccccc2)cc1`, the viability in test [1] (setting [3]) stood at 65.7%. Moreover, in test [1] (at 25 µM, stronger effect = lower value), the minimum viability is 46.8%. The half-maximal cytotoxic concentration (CC50) in test [2] is 35.4 µM; in test [2] (setting [4]), greater than 50 µM.
Consider `COc1ccc(-c2csc(NC(=O)c3ccccc3NS(=O)(=O)c3ccc(C)cc3)n2)cc1`, for which the viability in test [1] (setting [3]) was determined as 24.4%. The minimum viability in test [1] (at 50 µM, stronger effect = lower value) was 20%. In addition, the figures for the CC50 in test [2] and in test [2] (setting [4]) were 4.93 µM and 10.9 µM, respectively.
As for `COc1ccc(-c2nn(-c3ccccc3)cc2/C=C2/SC(=S)N(CCC(=O)O)C2=O)c(C)c1`, in test [1] (setting [3]), the viability worked out at 71.9%. In addition, the minimum viability in test [1] (at 50 µM, stronger effect = lower value) was found to be 52%. In addition, the CC50 in test [2] was 48.6 µM; in test [2] (setting [4]) it was greater than 50 µM.
With `CCS(=O)(=O)C1=NN2C(=N)/C(=C\c3ccc(OCCOc4cccc(OC)c4)c(OC)c3)C(=O)N=C2S1`, the viability in test [1] (setting [3]) was 50%; in test [1] (at 50 µM (top of the series)) it was 83.7% (inactive). In test [1] (at 50 µM, stronger effect = lower value), this molecule returned a minimum viability of 83.7%. Further, the CC50 in test [2] (setting [4]) came to 40.1 µM.
For `CCOc1cc(/C=N/N=C2/NC(=O)C(CC(=O)O)S2)ccc1OCc1ccc(Cl)cc1` (centres undefined), the figures for the viability in test [1] (setting [3]) and in test [1] (at 50 µM (top of the series)) were 75.2% and 101% (inactive), respectively. In addition, the minimum viability in test [1] (at 12.5 µM, stronger effect = lower value) is 85.4%. Also, the CC50 in test [2] (setting [4]) is greater than 50 µM.
For `O=C(N/N=C/c1cc(Cl)cc([N+](=O)[O-])c1O)NC12CC3CC(CC(C3)C1)C2`, in test [1] (setting [3]), the viability came to 55.7%. Further, the minimum viability in test [1] (at 50 µM, stronger effect = lower value) is 49.2%. Moreover, the half-maximal cytotoxic concentration (CC50) was 48.7 µM in test [2] and greater than 50 µM in test [2] (setting [4]).
Take `O=C(O)c1cccc2c1NC(c1cccc([N+](=O)[O-])c1)C1CC(Sc3ccccc3[N+](=O)[O-])C(Cl)C21` (centres undefined): the viability in test [1] (setting [3]) worked out at 48.4%. Also, in test [1] (at 50 µM, stronger effect = lower value), the minimum viability was found to be 53.6%. Besides, in test [2] (setting [4]), the CC50 was 47.9 µM.
Regarding `Brc1ccc(N/N=C(/N=Nc2nn[nH]n2)c2ccccc2)cc1`, the viability in test [1] (setting [3]) was determined as 20.1%. For the same molecule, the minimum viability in test [1] (at 50 µM, stronger effect = lower value) stood at 44.6%. The CC50 in test [2] was 32.8 µM; in test [2] (setting [4]), 23.5 µM.
As to `CCCOc1cccc(C2C(C(=O)c3cc4ccccc4o3)=C(O)C(=O)N2c2cc(C)on2)c1` (centres undefined), the viability in test [1] (setting [3]) stood at 90.1%. Also, the minimum viability in test [1] (at 50 µM, stronger effect = lower value) turned out to be 49.1%. Further, in test [2], the CC50 was 49.8 µM.
`CCc1oc2ccccc2c1C(=O)c1cc(Br)c(O)c(Br)c1`: the viability in test [1] (setting [3]) is 52.7%. In test [1] (at 50 µM, stronger effect = lower value), this molecule registered a minimum viability of 38.8%. The CC50 in test [2] is 43.5 µM; in test [2] (setting [4]) it was greater than 50 µM.
